# Reference: patent US11214803B2, “Modulators of YAP1 expression” (Ionis Pharmaceuticals, Inc., priority 2019, dated 2022)
# Strand notation (5' to 3'): a small letter for the sugar, then the base; units joined by * are phosphorothioate-linked, units joined directly phosphodiester-linked; [ ] holds rarer units or linkages, { } end groups; capitals alone tell only the bases. e = 2'-O-(2-methoxyethyl) (MOE); k = constrained ethyl (cEt); [5mC] = 5-methylcytosine; d = 2'-deoxy (DNA); m = 2'-O-methyl
# Test system: Yap1 mRNA
# Test: Antisense inhibition of human Yap1 in SNU-449 cells by modified oligonucleotides, single dose (Example 5, RTS36584)
# Format: cell-based
# Conditions: Table 40 (separate experiment); SNU-449 cells, 10,000 cells per well, free uptake, 2,000 nM oligonucleotide, approx. 48 hours; RTS36584; normalized to RIBOGREEN; Yap1 mRNA relative to untreated control
# Summary of the method: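 Values are % of untreated control: Yap1 mRNA by quantitative RT-PCR (RTS36584), normalized to RIBOGREEN total RNA. Oligonucleotides were dosed at 2,000 nM, free uptake, in SNU-449 cells, with roughly 48 h exposure before RNA isolation.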
row,Substance,YAP1 (% UTC)
1,1198757 (kA*eG*kT*dG*d[5mC]*dT*dT*dT*dG*dG*dA*dA*eG*eA*kT*k[5mC]; antisense) [Compound 1198757],4 % UTC
2,1198717 (kA*eA*kA*dT*dT*dG*dT*d[5mC]*dT*d[5mC]*dA*dT*eG*e[5mC]*k[5mC]*kT; antisense) [Compound 1198717],41 % UTC
3,1198782 (antisense kT*eG*kT*dA*dA*dT*dA*dT*dT*dG*d[5mC]*dA*eA*eT*k[5mC]*kT) [Compound 1198782],61 % UTC
4,1198724 (kA*eG*kA*dG*dT*dA*dT*dG*dT*dG*dG*d[5mC]*eA*eA*kT*kA; antisense) [Compound 1198724],16 % UTC

# Same assay, conditions: Table 41; SNU-449 cells, 10,000 cells per well, free uptake, 2,000 nM modified oligonucleotide, approximately 48 hours; RTS36584; normalized to RIBOGREEN; Yap1 mRNA relative to untreated control cells
row,Substance,YAP1 (% UTC)
1,1198640 (kT*kT*dA*dG*dA*dG*dT*dA*dT*dG*dT*dG*kG*e[5mC]*kA*eA; antisense) [Compound 1198640],26 % UTC
2,1198652 (kT*kT*dT*dT*dA*d[5mC]*dA*dT*dT*dA*dG*dG*kA*eA*k[5mC]*eA; antisense) [Compound 1198652],68 % UTC
3,1198670 (antisense kT*kT*dA*dG*dG*dA*dT*dG*d[5mC]*dA*dT*dG*kG*eT*kT*eT) [Compound 1198670],55 % UTC

# Same assay, conditions: Table 42 (separate experiment); SNU-449 cells, 10,000 cells per well, free uptake, 2,000 nM modified oligonucleotide, approximately 48 hours; RTS36584; normalized to RIBOGREEN; Yap1 mRNA relative to untreated control cells
row,Substance,YAP1 (% UTC)
1,1198708 (kT*kA*dA*dG*dT*dA*dA*dG*dG*dT*dT*dT*k[5mC]*e[5mC]*k[5mC]*eA; antisense) [Compound 1198708],34 % UTC
2,1198205 (kA*kT*dG*dG*dA*dA*dA*dT*dT*dG*dT*e[5mC]*eT*e[5mC]*kA*kT; antisense) [Compound 1198205],64 % UTC
3,1198680 (antisense k[5mC]*kT*dT*dA*dT*dA*dT*dG*dG*dT*dT*dT*kT*eG*kT*eG) [Compound 1198680],28 % UTC
4,1198703 (k[5mC]*kT*dT*dT*dA*dA*dA*dG*dT*dG*dT*dA*kT*eG*kT*e[5mC]; antisense) [Compound 1198703],42 % UTC
5,1198204 (kT*kG*dG*dA*dA*dA*dT*dT*dG*dT*d[5mC]*eT*e[5mC]*eA*kT*kG; antisense) [Compound 1198204],31 % UTC

# Same assay, conditions: Table 43 experiment; SNU-449 cells, 10,000 cells per well, free uptake, 2,000 nM, approximately 48 hours; RTS36584; Yap1 mRNA normalized to RIBOGREEN, relative to untreated control cells
row,Substance,YAP1 (% UTC)
1,1198264 (kT*kA*dT*dG*dT*dA*dA*dT*dA*dT*dT*eG*e[5mC]*eA*kA*kT; antisense) [Compound 1198264],73 % UTC
2,1198485 (antisense kA*kG*d[5mC]*dA*d[5mC]*dT*dT*dT*dT*dA*d[5mC]*eA*kT*eT*kA*eG) [Compound 1198485],64 % UTC
3,1198272 (kT*kT*dT*dA*dA*dA*dG*dT*dG*dT*dA*eT*eG*eT*k[5mC]*kA; antisense) [Compound 1198272],37 % UTC
4,1198469 (antisense kA*kT*dT*dA*dG*dA*dG*dT*dA*dT*dG*eT*kG*eG*k[5mC]*eA) [Compound 1198469],23 % UTC
5,1198470 (antisense kT*kA*dT*dT*dA*dG*dA*dG*dT*dA*dT*eG*kT*eG*kG*e[5mC]) [Compound 1198470],17 % UTC

# Same assay, conditions: Table 44 experiment; SNU-449 cells, 10,000 cells per well, free uptake, 2,000 nM, approximately 48 hours; RTS36584; Yap1 mRNA normalized to RIBOGREEN, relative to untreated control cells
row,Substance,YAP1 (% UTC)
1,1198497 (antisense kA*kG*dG*dA*dT*dG*d[5mC]*dA*dT*dG*dG*eT*kT*eT*kT*eT) [Compound 1198497],22 % UTC
2,1198531 (k[5mC]*kT*dT*dT*dA*dA*dA*dG*dT*dG*dT*eA*kT*eG*kT*e[5mC]; antisense) [Compound 1198531],21 % UTC
3,1198534 (kA*kG*dT*dA*dA*dG*dG*dT*dT*dT*d[5mC]*e[5mC]*k[5mC]*eA*kG*eA; antisense) [Compound 1198534],30 % UTC
4,1198510 (k[5mC]*kT*d[5mC]*dT*dT*dA*dT*dA*dT*dG*dG*eT*kT*eT*kT*eG; antisense) [Compound 1198510],8 % UTC
5,1198532 (kA*kA*d[5mC]*dT*dT*dT*dA*dA*dA*dG*dT*eG*kT*eA*kT*eG; antisense) [Compound 1198532],36 % UTC

# Same assay, conditions: Table 45; Yap1 mRNA as percent of untreated control, SNU-449 cells, single dose
row,Substance,YAP1 (% UTC)
1,1198934 (kA*kT*dT*dT*dA*dG*dG*dA*dT*dG*d[5mC]*kA*dT*kG*dG*kT; antisense) [Compound 1198934],56 % UTC
2,1198920 (kA*kA*dG*d[5mC]*dA*d[5mC]*dT*dT*dT*dT*dA*k[5mC]*dA*kT*dT*kA; antisense) [Compound 1198920],54 % UTC
3,1095511 (antisense k[5mC]*kA*d[5mC]*dT*dG*dA*dG*dG*dT*dA*dT*kA*dA*k[5mC]*dT*kG) [Compound 1095511],46 % UTC
4,1095491 (antisense kA*k[5mC]*dT*dG*dA*dG*dG*dT*dA*dT*dA*kA*d[5mC]*kT*dG*kG) [Compound 1095491],65 % UTC
5,1198950 (kA*kT*dA*dT*dT*dG*d[5mC]*dA*dA*dT*d[5mC]*kT*dG*kT*d[5mC]*kT; antisense) [Compound 1198950],85 % UTC

# Same assay, conditions: Table 46; Yap1 mRNA as percent of untreated control, SNU-449 cells, single dose
row,Substance,YAP1 (% UT)
1,1198883 (kA*kA*dG*dT*dA*dA*dG*dG*dT*dT*dT*k[5mC]*e[5mC]*k[5mC]*eA*kG; antisense) [Compound 1198883],47 % UT
2,1198836 (kG*kG*dA*dA*dG*dA*dT*d[5mC]*dT*dG*dA*kA*eA*k[5mC]*eT*k[5mC]; antisense) [Compound 1198836],43 % UT
3,1198867 (kG*kT*dA*dA*dT*dA*dT*dT*dG*d[5mC]*dA*kA*eT*k[5mC]*eT*kG; antisense) [Compound 1198867],25 % UT
4,1198885 (k[5mC]*kT*dA*dA*dG*dT*dA*dA*dG*dG*dT*kT*eT*k[5mC]*e[5mC]*k[5mC]; antisense) [Compound 1198885],41 % UT
5,1198870 (kT*kA*dT*dG*dT*dA*dA*dT*dA*dT*dT*kG*e[5mC]*kA*eA*kT; antisense) [Compound 1198870],86 % UT
6,1198844 (kA*kT*dA*dG*dT*dG*d[5mC]*dT*dT*dT*dG*kG*eA*kA*eG*kA; antisense) [Compound 1198844],56 % UT
7,1198810 (antisense kT*kG*dG*dA*dA*dA*dT*dT*dG*dT*d[5mC]*kT*e[5mC]*kA*eT*kG) [Compound 1198810],50 % UT

# Same assay, conditions: Table 48; Yap1 mRNA level relative to untreated control; modified oligonucleotides targeting SEQ ID NO.: 1 and 2
row,Substance,YAP1 (% UT)
1,1097247 (antisense kT*kA*kA*dA*dG*dT*dG*dT*dA*dT*dG*dT*d[5mC]*kA*kG*kA) [Compound 1097247],9 % UT

# Same assay, conditions: Table 49; Yap1 mRNA level relative to untreated control; modified oligonucleotides targeting SEQ ID NO.: 1 and 2
row,Substance,YAP1 (% UT)
1,1198334 (kA*kT*kA*dT*dG*dG*dT*dT*dT*dT*dG*dT*kG*eT*kG*eT; antisense) [Compound 1198334],57 % UT
2,1198349 (kA*kT*kG*dT*dA*dA*dT*dA*dT*dT*dG*d[5mC]*kA*eA*kT*e[5mC]) [Compound 1198349],85 % UT
3,1198366 (kA*k[5mC]*kT*dA*dA*dG*dT*dA*dA*dG*dG*dT*kT*eT*k[5mC]*e[5mC]; antisense) [Compound 1198366],45 % UT

# Same assay, conditions: Table 51; Yap1 mRNA remaining as percent of untreated control (UT), SNU-449 cells, single dose
row,Substance,YAP1 (% UT)
1,1200786 (kA*kA*kT*dT*dG*mU*d[5mC]*dT*d[5mC]*dA*dT*dG*d[5mC]*k[5mC]*kT*kT; antisense) [Compound 1200786],21 % UT
2,1197315 (kA*kA*k[5mC]*dT*mU*dT*dA*dA*dA*dG*dT*dG*dT*kA*kT*kG; antisense) [Compound 1197315],116 % UT
3,1197313 (kA*kG*kT*dG*mU*dA*dT*dG*dT*d[5mC]*dA*dG*dA*kA*kG*kA; antisense) [Compound 1197313],8 % UT
4,1200784 (kT*kG*kT*d[5mC]*dT*mC*dA*dT*dG*d[5mC]*d[5mC]*dT*dT*kA*kT*kA; antisense) [Compound 1200784],19 % UT
5,1197299 (kA*kG*kG*dA*mU*dG*d[5mC]*dA*dT*dG*dG*dT*dT*kT*kT*kT; antisense) [Compound 1197299],41 % UT
6,1197312 (kT*kG*kT*dA*mU*dG*dT*d[5mC]*dA*dG*dA*dA*dG*kA*kG*kT; antisense) [Compound 1197312],10 % UT

# Same assay, conditions: Table 52; Yap1 mRNA, modified oligonucleotides targeting SEQ ID NO: 1 and 2
row,Substance,YAP1 (% UT)
1,"1200789 (G_{ks}G_{ks}A_{ks}A_{ds}A_{ds}U_{ys}T_{ds}G_{ds}T_{ds}^{m}C_{ds}T_{ds}^{m}C_{ds}A_{ds}T_{ks}G_{ks}^{m}C_{k}; antisense; as printed in the source, key not given here) [Compound 1200789]",12 % UT
2,1200837 (kA*kT*kT*d[5mC]*dA*mG*dA*dT*dT*dT*dA*dG*dG*kA*kT*kG; antisense) [Compound 1200837],82 % UT

# Same assay, conditions: Yap1 mRNA, percent of untreated control; modified oligonucleotides targeting SEQ ID NO: 1 and 2; Table 47
row,Substance,YAP1 (% UT)
1,1197181 (antisense kT*kT*kA*d[5mC]*dA*dT*dT*dA*dG*dG*dA*dA*d[5mC]*kA*kA*kG) [Compound 1197181],87 % UT
2,1074799 (kT*kG*k[5mC]*dT*dT*dT*dG*dG*dA*dA*dG*dA*dT*k[5mC]*kT*kG) [Compound 1074799],21 % UT
3,1197223 (antisense kT*kA*kA*dG*dT*dA*dA*dG*dG*dT*dT*dT*d[5mC]*k[5mC]*k[5mC]*kA) [Compound 1197223],11 % UT
